Like-named read-outs stand apart in the source and are kept apart here. Peptide text beside a SMILES is read from it. * marks the point of attachment. Palmitoyl = CCCCCCCCCCCCCCCC(=O)*; Octanoyl = CCCCCCCC(=O)*
How the values were obtained:
pig erythrocytes = assay type: cell-based
Procedure: Since PRAMPs are able to kill bacteria through membrane lysis, it is imperative to evaluate whether these synthesized SPRLPs also lyse eukaryotic membranes. The ability to lyse porcine red blood cells was assessed and the minimum concentration to result in 5% erythrocyte hemolysis (MHC) was reported (Tables 2 & 3). […] This greatly limits their therapeutic potential. […] However, all other SPRLPs were non-hemolytic (MHC>512 μg/mL).
The ability of SPRLPs to lyse eukaryotic red blood cells were quantified by the amount of hemoglobin released upon incubation with pig erythrocytes, following published protocols (37, 39). Fresh pig blood drawn from pig antecubital vein was centrifuged at 1000×g for 5 minutes at 4° C., washed with PBS three times and re-suspended in the same buffer, consecutively. Then, agents of interest were 2-fold serially diluted in PBS on 96-well plate and mixed with equal volumes of erythrocyte solution. Post 1-hour incubation at 37° C., intact cells were pelleted by centrifugation at 1000×g for 5 minutes at 4° C. The supernatant was then transferred to a new 96-well plate. The hemoglobin released was measured via EMax Plus microplate reader (Molecular Devices, USA) at 570 nm wavelength. Erythrocytes in PBS with or without 0.1% Triton X-100 was used as negative or positive control, respectively.

[1] = tested on: A. baumannii CAN-ICU 63169; assay type: cell-based
Procedure: (§1) The synthesized SPRLPs were evaluated for their antibacterial potency against a panel of Gram-positive and Gram-negative bacteria (Tables 2 & 3). Some of the included pathogens were collected from patients visiting or admitted to participating Canadian hospitals through the CAN-ICU (27) and CANWARD (28) national surveillance studies. Antibacterial activity was assessed using minimum inhibitory concentration (MIC) against various clinical pathogens.
(§2) Isolates used in this study were either obtained from the American Type Culture Collection (ATCC), the Canadian National Intensive Care Unit (CAN-ICU) surveillance study (27) or the Canadian Ward Surveillance (CANWARD) study (28). Clinical isolates belonging to the CAN-ICU and CANWARD studies were recovered from patients suffering a presumed infectious disease entering or admitted in a participating medical center across Canada during the time of study. MDR P. aeruginosa strains in this study refer to those that are resistant to aminoglycosides, fluoroquinolones, cephalosporins, and carbapenems while XDR strains are those that are resistant to aminoglycosides, fluoroquinolones, cephalosporins, carbapenems, aztreonam and penicillin+β-lactamase inhibitor combination (39, 40).
(§3) Microbroth dilution susceptibility test following the Clinical and Laboratory Standards Institute (CLSI) guidelines (32) was performed to assess the in vitro antibacterial activity of SPRLPs. Overnight grown bacterial cultures were diluted in saline to achieve a 0.5 McFarland turbidity, followed by 1:50 dilution in Mueller-Hinton broth (MHB) for inoculation to a final concentration of 5×10^5 colony forming units/mL. The assay was done on a 96-well plate to which the agents of interest were 2-fold serially diluted in MHB and incubated with equal volumes of inoculum at 37° C. for 18 hours. MIC was determined as the lowest concentration to inhibit visible bacterial growth in form of turbidity, which was confirmed using EMax Plus microplate reader (Molecular Devices, USA) at a wavelength of 590 nm. The well containing MHB broth with or without bacterial cells was used as positive or negative control, respectively.

[2] = tested on: E. coli CAN-ICU 61714 (gentamicin-resistant); assay type: cell-based
Procedure: as §1, §2, §3

E. faecium ATCC 27270 = assay type: cell-based
Procedure: as §1, §2, §3

[3] = tested on: E. coli CAN-ICU 63074 (amikacin-intermediate resistant); assay type: cell-based
Procedure: as §1, §2, §3

[4] = tested on: methicillin-susceptible Staphylococcus epidermidis CANWARD-2008 81388; assay type: cell-based; details: methicillin-susceptible CANWARD-2008 81388
Procedure: as §1, §2, §3

[5] = tested on: E. coli CANWARD-2011 97615 (gentamicin-, tobramycin-, ciprofloxacin-resistant) aac(3′)iia; assay type: cell-based
Procedure: as §1, §2, §3

[6] = tested on: methicillin-resistant S. aureus ATCC 33592; assay type: cell-based
Procedure: as §1, §2, §3

E. coli ATCC 25922 = assay type: cell-based
Procedure: as §1, §2, §3

[7] = tested on: methicillin-resistant S. epidermidis CAN-ICU 61589 (ceftazidime-resistant); assay type: cell-based; details: methicillin-resistant CAN-ICU 61589 (ceftazidime-resistant)
Procedure: as §1, §2, §3

E. faecalis ATCC 29212 = assay type: cell-based
Procedure: as §1, §2, §3

[8] = tested on: P. aeruginosa wild-type PAO1; assay type: cell-based
Procedure: as §1, §2, §3

[9] = tested on: S. maltophilia CAN-ICU 62584; assay type: cell-based
Procedure: as §1, §2, §3

[10] = tested on: P. aeruginosa CANWARD-2011 96846 (gentamicin-, tobramycin-resistant); assay type: cell-based
Procedure: as §1, §2, §3

K. pneumoniae ATCC 13883 = assay type: cell-based
Procedure: as §1, §2, §3

P. aeruginosa ATCC 27853 = assay type: cell-based
Procedure: as §1, §2, §3

S. aureus ATCC 29213 = assay type: cell-based
Procedure: as §1, §2, §3

[11] = tested on: P. aeruginosa CAN-ICU 62308 (gentamicin-resistant); assay type: cell-based
Procedure: as §1, §2, §3

[12] = tested on: wild-type and MDR/XDR P. aeruginosa clinical isolates; details: checkerboard assay; P. aeruginosa
Procedure: (§4) We evaluated the activity of SPRLPs in combination with fifteen clinically-used antibiotics against P. aeruginosa. Antibiotics tested included fluoroquinolones (moxifloxacin, ciprofloxacin and levofloxacin), aminoglycosides (gentamicin, tobramycin and amikacin), cephalosporins (ceftazidime and cefotaxime), carbapenems (meropenem and doripenem), aztreonam, rifampicin, minocycline, colistin and fosfomycin. The SPRLPs were screened initially at a fixed concentration of 8 μg/mL (5 μM) in combination with antibiotics against wild-type P. aeruginosa PAO1. We assessed potentiation by at least a four-fold absolute MIC reduction of the antibiotic, after which synergism was further validated by a conventional checkerboard assay. A fractional inhibitory concentration (FIC) index of ≤0.5, 0.5<x≤4 or >4 was interpreted as synergistic, indifferent or antagonistic interaction, respectively (31). FIC index was obtained by adding the FIC values of the antibiotic and the SPRLP adjuvant. FIC of antibiotics was calculated by dividing the MIC of the antibiotic in the presence of the adjuvant by the MIC of the antibiotic alone. Similarly, the FIC of adjuvant was calculated via dividing the MIC of the adjuvant in the presence of the antibiotic by the MIC of the adjuvant alone.
as §2, §3
(§5) The assay was performed on a 96-well plate, to which the agents of interest was 2-fold serially diluted in working MHB. Prior to serial dilution, SPRLP was added to the working MHB media so that a fixed final concentration of 8 μg/mL (5 μM) SPRLP per well was achieved. To ensure that the assay was working, the MIC determination test of the studied antibiotic (without SPRLP) was included on the same plate. Similar MIC results between the assay comparator and an independent MIC determination test (on a different plate) ensured validity of the synergy test. Overnight grown bacterial cultures were diluted in saline to 0.5 McFarland turbidity, followed by 1:50 dilution in MHB (without SPRLP) and inoculation into each well to a final concentration of approximately 5×10^5 colony forming units/mL. Wells containing only MHB (without SPRLP) with or without bacterial cells were used as positive or negative control, respectively.

Gram-positive bacteria = test: Microbroth dilution MIC, range over panel; assay type: cell-based; details: against Gram-positive bacteria of the panel
Procedure: as §1, §3

[13] = tested on: P. aeruginosa PAO1 (wild-type); test: microbe, parasite or virus in culture; details: Pseudomonas aeruginosa, PAO1, read-out: MIC (agent alone)
Procedure: as §4, §3
as §5, with “respectively. The plate was then incubated at 37° C. for 18 hours and examined for visible turbidity, to which was confirmed using EMax Plus microplate reader (Molecular Devices, USA) at a wavelength of 590 nm. A 4-fold or more MIC reduction of antibiotic in the presence of 8 μg/mL (5 μM) SPRLP denoted a positive synergy result and was further validated by a checkerboard assay.” for “respectively.”
The assay was done on a 96-well plate as previously described (40, 41). The agent of interest was 2-fold serially diluted along the x-axis, while the adjuvant was 2-fold serially diluted along the y-axis to create a matrix in which each well consist of a combination of both at different concentrations.

[14] = tested on: P. aeruginosa 262-101856 (MDR/XDR); test: microbe, parasite or virus in culture; details: Pseudomonas aeruginosa, read-out: MIC (agent alone)
Procedure: as §4, §2, §3, §5

[15] = tested on: P. aeruginosa 91433 (colistin-resistant, MDR/XDR); test: microbe, parasite or virus in culture; details: Pseudomonas aeruginosa, read-out: MIC (agent alone)
Procedure: as §4, §2, §3, §5

[16] = tested on: P. aeruginosa 101243 (colistin-resistant, MDR/XDR); test: microbe, parasite or virus in culture; details: antibiotic or lipopeptide alone; for MIC: Pseudomonas aeruginosa, read-out: MIC (agent alone), P. aeruginosa 101243 (colistin-resistant)
Procedure: as §4, §2, §3, §5

[17] = tested on: P. aeruginosa 260-97103 (MDR/XDR); test: microbe, parasite or virus in culture; details: Pseudomonas aeruginosa, read-out: MIC (agent alone)
Procedure: as §4, §2, §3, §5

[18] = tested on: P. aeruginosa 259-96918 (MDR/XDR); test: microbe, parasite or virus in culture; details: Pseudomonas aeruginosa, read-out: MIC (agent alone)
Procedure: as §4, §2, §3, §5

[19] = tested on: P. aeruginosa 101885 (MDR/XDR); test: microbe, parasite or virus in culture; details: Pseudomonas aeruginosa, read-out: MIC (agent alone)
Procedure: as §4, §2, §3, §5

[20] = tested on: P. aeruginosa 264-104354 (MDR/XDR); test: microbe, parasite or virus in culture; details: Pseudomonas aeruginosa, read-out: MIC (agent alone)
Procedure: as §4, §2, §3, §5

[21] = tested on: P. aeruginosa 100036 (MDR/XDR); test: microbe, parasite or virus in culture; details: Pseudomonas aeruginosa, read-out: MIC (agent alone)
Procedure: as §4, §2, §3, §5

CCCCCCCC(=O)N1CCC[C@H]1C(=O)N[C@@H](CCCNC(=N)N)C(=O)N1CCC[C@H]1C(=O)N[C@@H](CCCNC(=N)N)C(=O)N1CCC[C@H]1C(=O)N[C@@H](CCCNC(=N)N)C(=O)N1CCC[C@H]1C(N)=O [Compound C8-PRP, CH3(CH2)6CO-PRPRPRP-NH2] (Octanoyl-PRPRPRP-NH2)
MHC (minimum concentration that resulted in 5% red blood cell hemolysis) (pig erythrocytes; red cells of porcine): >512 µg/mL
MIC [1]: >128 µg/mL
MIC [2]: >128 µg/mL
MIC (E. faecium ATCC 27270): >128 µg/mL
MIC [3]: >128 µg/mL
MIC [4]: >128 µg/mL
MIC [5]: >128 µg/mL
MIC [6]: >128 µg/mL
MIC (E. coli ATCC 25922): >128 µg/mL
MIC [7]: >128 µg/mL
MIC (E. faecalis ATCC 29212): >128 µg/mL
MIC [8]: >512 µg/mL
MIC [9]: >128 µg/mL
MIC [10]: >128 µg/mL
MIC (K. pneumoniae ATCC 13883): >128 µg/mL
MIC (P. aeruginosa ATCC 27853): >128 µg/mL
MIC (S. aureus ATCC 29213): >128 µg/mL
MIC [11]: >128 µg/mL
interaction with minocycline (in words) [12]: indifferent interaction
interaction with rifampicin (in words) [12]: indifferent interaction

CCCCCCCCCCCCCCCC(=O)N1CCC[C@H]1C(=O)N[C@@H](CCCNC(=N)N)C(=O)N1CCC[C@H]1C(=O)NCC(=O)N1CCC[C@H]1C(=O)N[C@@H](CCCNC(=N)N)C(=O)N1CCC[C@H]1C(N)=O [Compound C16-PGP, CH3(CH2)14CO-PRPGPRP-NH2] (Palmitoyl-PRPGPRP-NH2)
MHC (minimum concentration that resulted in 5% red blood cell hemolysis) (pig erythrocytes): 16 µg/mL
MIC [1]: 32 µg/mL
MIC [2]: 32 µg/mL
MIC (E. faecium ATCC 27270): 16 µg/mL
MIC [3]: 32 µg/mL
MIC [4]: 8 µg/mL
MIC [5]: 32 µg/mL
MIC [6]: 32 µg/mL
MIC (E. coli ATCC 25922): 32 µg/mL
MIC [7]: 16 µg/mL
MIC (E. faecalis ATCC 29212): 16 µg/mL
MIC [8]: 64 µg/mL
MIC [9]: 128 µg/mL
MIC [10]: 128 µg/mL
MIC (K. pneumoniae ATCC 13883): 64 µg/mL
MIC (P. aeruginosa ATCC 27853): 128 µg/mL
MIC (S. aureus ATCC 29213): 32 µg/mL
MIC [11]: 128 µg/mL
MIC range (Gram-positive bacteria): 8 to 32 µg/mL

CN(C)c1ccc(O)c2c1C[C@H]1C[C@H]3[C@H](N(C)C)C(O)=C(C(N)=O)C(=O)[C@@]3(O)C(O)=C1C2=O [minocycline]
MIC [13]: 8 µg/mL
MIC [14]: 64 µg/mL
MIC [15]: 32 µg/mL
MIC (agent alone) ([16]; P. aeruginosa 101243 (colistin-resistant)): 4 µg/mL
MIC [16]: 2 µg/mL
MIC [17]: 16 µg/mL
MIC [18]: 16 µg/mL
MIC [19]: 16 µg/mL
MIC [20]: 32 µg/mL
MIC [21]: 16 µg/mL

CO[C@H]1/C=C/O[C@@]2(C)Oc3c(C)c(O)c4c(O)c(c(/C=N/N5CCN(C)CC5)c(O)c4c3C2=O)NC(=O)/C(C)=C\C=C\[C@H](C)[C@H](O)[C@@H](C)[C@@H](O)[C@@H](C)[C@H](OC(C)=O)[C@@H]1C [rifampicin]
MIC [13]: 8 µg/mL
MIC [14]: 512 µg/mL
MIC [15]: 16 µg/mL
MIC [16]: 4 µg/mL
MIC [17]: 16 µg/mL
MIC [18]: 16 µg/mL
MIC [19]: 16 µg/mL
MIC [20]: 8 µg/mL
MIC [21]: 16 µg/mL

Reference: patent US20200407398A1, “Short Proline-Rich Lipopeptide Potentiates Minocycline and Rifampicin Against Multidrug-and Extensively Drug-Resistant Pseudomonas Aeruginosa” (priority 2018, published 2020)
